Data reported in PMC6149824, “Design and Synthesis of New Benzothiazole Compounds as Selective hMAO-B Inhibitors” (Molecules : A Journal of Synthetic Chemistry and Natural …, 2017).

Assays:
[1] = molecular target: T1, hMAO-B (Homo sapiens, UniProt P27338); assay: in vitro fluorometric hMAO-B inhibition assay (Amplex Red); type: biochemical
T1 sequence (P27338 1-520): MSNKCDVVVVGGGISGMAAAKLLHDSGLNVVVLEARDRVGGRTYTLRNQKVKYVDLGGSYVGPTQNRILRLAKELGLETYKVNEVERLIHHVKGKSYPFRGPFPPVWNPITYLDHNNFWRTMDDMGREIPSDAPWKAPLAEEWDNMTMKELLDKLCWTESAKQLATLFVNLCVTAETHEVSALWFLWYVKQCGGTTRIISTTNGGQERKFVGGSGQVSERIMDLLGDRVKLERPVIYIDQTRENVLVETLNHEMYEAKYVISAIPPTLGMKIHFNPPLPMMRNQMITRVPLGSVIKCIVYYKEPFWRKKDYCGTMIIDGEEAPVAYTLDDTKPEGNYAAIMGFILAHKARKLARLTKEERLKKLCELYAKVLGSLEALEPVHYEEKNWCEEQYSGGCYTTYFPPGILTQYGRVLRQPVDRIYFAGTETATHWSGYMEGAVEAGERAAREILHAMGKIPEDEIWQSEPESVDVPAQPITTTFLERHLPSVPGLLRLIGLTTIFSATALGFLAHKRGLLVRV
Description: The method was performed in two steps, as previously described.
An enzyme inhibition assay was performed according to our recent study. […] After the incubation period, the reaction was started by adding a working solution (100 μL/well) ([…] Amplex Red reagent, 1 U/mL horseradish peroxidase and 1 mM p-tyramine) and all pipetting processes were performed using a Biotek Precision XS robotic system (BioTek Instruments, Winooski, VT, USA).
Control experiments were carried out simultaneously by replacing the inhibitor solution with 2% DMSO (20 μL). In order to check the probable inhibitory effect of inhibitors on horseradish peroxidase, a parallel reading was achieved by replacing enzyme solutions with 3% H2O2 solution (20 mM 100 μL/well). In addition, the probable capacity of the inhibitors to modify the fluorescence generated in the reaction mixture due to non-enzymatic inhibition was determined by mixing inhibitor and working solutions.
The specific fluorescence emission (used to obtain the final results) was calculated after subtraction of the background activity, which was determined from vials containing all components except the hMAO isoforms, which were replaced by phosphate buffer (100 μL/well). Blank, control and all concentrations of inhibitors were analyzed in quadruplicate and inhibition percent was calculated by using following equation: % Inhibition=(FCt2−FCt1)−(FIt2−FIt1)/FCt2−FCt1×100 where FCt2 is the fluorescence of a control well measured at t2 time; FCt1 is the fluorescence of a control well measured at t1 time; FIt2 is the fluorescence of an inhibitor well measured at t2 time; and FIt1 is the fluorescence of an inhibitor well measured at t1 time.
The IC50 values were calculated from a dose-response curve obtained by plotting the percentage inhibition versus the log concentration with the use of GraphPad PRISM software (version 5.0, GraphPad Software Inc., La Jolla, CA, USA).

[2] = molecular target: T1, hMAO-B; assay: enzyme kinetic studies (Lineweaver-Burk) of hMAO-B inhibition; type: biochemical
Description: The mechanism of hMAO-B inhibition was investigated by enzyme kinetic studies. Lineweaver-Burk graphs were used to estimate the type of inhibition. […] The velocity measurements were performed by using different substrate concentrations (20 µM–0.625 µM). The Ki (intercept on the x-axis) value of compound 3e was determined from the secondary plot of the 1/V versus varying concentrations.
The Lineweaver-Burk graphics present the inhibition type as a mixed-type, competitive, uncompetitive, or non-competitive. In the mix-typed inhibition, the control and inhibitor lines cross neither x- nor y-axis at the same point. […] There is no crosses between the lines in uncompetitive-type inhibition. […] Thus, it can be declared that the mechanism of hMAO-B inhibition of 3e is non-competitive, clarifying that the inhibitor can bind to either free enzyme or enzyme–substrate complex.
The same materials were used in the MAO inhibition assay. […] The solutions of inhibitor (20 μL/well) and enzyme added to the fine black-bottom 96-well microtiter plate and then the mixture was incubated at 37 °C for 30 min. After incubation period, the working solution, including various concentrations (20, 10, 5, 2.5, 1.25, and 0.625 μM) of tyramine (100 μL/well), was added. The increase of the fluorescence (Ex/Em = 535/587 nm) was recorded for 30 min. A parallel experiment was performed without using an inhibitor. All processes were assayed in quadruplicate. Lineweaver-Burk plots were obtained by using Microsoft Office Excel 2013 to analyze the inhibition type. The slopes of the Lineweaver-Burk plots were replotted versus the inhibitor concentration, and the Ki values were determined from the x-axis intercept as −Ki.

inhibition at 1000 µM ([1]; 10^−3 M, read-out: MAO B Inhibition %): 87.3%
inhibition against hMAO-B (first screening step) ([1]; 10^−3 and 10^−4 M): more than 50%
inhibition at 100 µM ([1]; 10^−4 M, read-out: MAO B Inhibition %): 83.5%
IC50 ([1]; concentrations of 10^−5–10^−9 M, mean ± SD, read-out: MAO B IC50): 0.06 ± 0.002 µM
mechanism (type) of hMAO-B inhibition ([2]; Lineweaver-Burk plots): non-competitive
Vmax ([2]; inhibitor concentration 2 × IC50): 158.730 nmol/min/mg protein
Vmax ([2]; inhibitor concentration IC50): 212.766 nmol/min/mg protein
Vmax ([2]; inhibitor concentration IC50/2): 263.158 nmol/min/mg protein
Ki ([2]; secondary plot, x-axis intercept, substrate tyramine, read-out: Ki (steady-state inhibition constant) for the inhibition of hMAO-B): 0.061 µM
SMILES: COc1ccc2sc(SCC(=O)NN=Cc3ccc([N+](=O)[O-])s3)nc2c1 [Compound 3e, 2-((5-Methoxybenzothiazol-2-yl)thio)-N′-((5-nitrothiophen-2-yl)methylene)acetohydrazide]
